Data: patent publication US11291674B2 (CALITHERA BIOSCIENCES, INC., priority 2016, dated 2022)
Entries after “also recorded” stand apart in the source; their conditions may differ.

Columns and labels:
CT26 lung metastases = test: Adoptive NK cell transfer study, CT26 lung metastasis model; assay type: in vivo, mouse; details: compared to control groups, 14 days
Procedure: Adoptive NK cell transfer studies. Balb/c mice were inoculated i.v. with 1×10^5 CT26 cells. 1×10^6NK cells (isolated from Balb/c spleens the day before injection and incubated with recombinant IL-2 and IL-15 for 18 h) were transferred on the same day as tumor inoculation. The injected NK cells were profiled by flow cytometry to be CD25^+ and 80-90% pure with less than 0.4% T cells.

4T1 tumors = test: 4T1 orthotopic tumor model; assay type: in vivo, mouse
Excerpt: (§1) Murine tumor studies. Female wild-type C57BL/6 and Balb/c mice (5-6 weeks old) were purchased from Charles River Laboratories (Hollister, Calif.). Severe combined immune deficient (SCID, B6.CB17-PrkdcSCID/SzJ) and Pmel-1 TCR transgenic (B6.Cg-Thyla/Cy Tg(TcraTcrb)8Rest/J) mice (5-6 weeks old) were purchased from The Jackson Laboratory (Bar Harbor, Me.). All mice were housed and treated in accordance with Institutional Animal Care and Use Committee guidelines. For the 4T1 tumor model, 1×10^5 cells were injected orthotopically into the mammary fat pad; for all other tumor models, 1×10^6 cells were injected subcutaneously (s.c.) in the right flank. […] Control groups received vehicle (water) twice daily by gavage. Tumor volume measured by digital caliper (length×width×width/2) and body weight were recorded three times weekly. Animals were euthanized when tumors necrotized or volumes reached 2000 mm^3. Anti-PD-L1 antibody (5 mg/kg, clone 10F.9G2, BioXCell, West Lebanon, N.H.) was injected intraperitoneally (i.p.) on days 5, 7, 9, 11, 13, and 15 for the CT26 model. Gemcitabine (Selleckchem, Houston, Tex.) was dosed 50 mg/kg i.p. on days 10 and 16 for the CT26 model or 60 mg/kg i.p. on days 6 and 10 for the LLC model. For CD8^+ cell depletion, mice were injected i.p. with anti-CD8 antibody (25 mg/kg, clone 2.43, BioXCell) on days −1, 0, +5, and +10. For NK cell depletion, mice were injected i.p. with anti-NK1.1 antibody (25 mg/kg, clone PK136, BioXCell) in the LLC and B16 models or with anti-Asialo GM1 sera (20 μL, Wako Chemicals, Richmond, Va.) in the CT26 model, per the same schedule as anti-CD8.
(§2) Tumor dissociation and flow cytometry. […] Excised tumors were placed in RPMI-1640 containing 5% FBS on ice, minced with a razor blade, and dissociated in RPMI-1640 supplemented with mouse tumor dissociation enzymes (Miltenyi Biotec, Bergisch Gladbach, Germany) on a GentleMACS Octo Dissociator With Heat (Miltenyi Biotec) according to the manufacturer's instructions. Dissociated tumors were strained through 70 μm nylon mesh, washed with cold PBS containing 2% FBS, blocked with anti-CD16/CD32 (Fc block antibody, eBioscience), and stained for cell surface antigens. For B16 and 4T1 tumors, washed dissociated tumor cells were incubated with Dead Cell Removal MicroBeads (Miltenyi Biotec) and applied to a magnetic column prior to staining. For intracellular staining, cells were fixed and permeabilized using buffers purchased from R&D Systems or eBioscience for cytoplasmic or nuclear antigens, respectively. All tumor flow experiments were acquired on an Attune N×T flow cytometer and analyzed with FlowJo software version 10 (Ashland, Oreg.), using fluorescence-minus-one controls for gating and single-stained OneComp eBeads (eBioscience) to set compensation matrices.

LLC cell line = test: Cytotoxicity assay (CellTiterGlo), LLC; assay type: cell-based, murine; details: 1 mM arginase inhibitor, 72 h
Procedure: Cytotoxicity assays. […] Cytotoxicity was assayed by the addition of CellTiterGlo reagent according to the manufacturer's instructions (Promega, Madison, Wis.) followed by […] quantification on a Molecular Devices plate reader (Sunnyvale, Calif.).

LLC tumors = LLC tumors in SCID mice; assay type: in vivo, mouse; details: 100 mg/kg PO twice daily
Procedure: Tumors from LLC studies were analyzed on study day 13 (CD8^+ cell depletion) or study day 14 (NK cell depletion). (****P<0.0001; ***P<0.001; **P<0.01).
as §1, with “For CD8^+ cell depletion, mice were injected i.p. with anti-CD8 antibody (25 mg/kg, clone 2.43, BioXCell) on days −1, 0, +5, and +10. For NK cell depletion, mice were injected i.p. with anti-NK1.1 antibody (25 mg/kg, clone PK136, BioXCell) in the LLC and B16 models or with anti-Asialo GM1 sera (20 μL, Wako Chemicals, Richmond, Va.) in the CT26 model, per the same schedule as anti-CD8.” left out

[1] = system: granulocyte-mediated suppression of T cell proliferation; test: T cell/granulocyte co-culture assay, healthy donor; assay type: cell-based, human
Procedure: T cell and NK cell proliferation assays. T cells or NK cells were purified from healthy donor human blood or from murine splenocytes using a negative selection kit for the appropriate cell type and species from Stemcell Technologies. Isolated T cells or NK cells were loaded with carboxyfluorescein succinimidyl ester (CFSE, Thermo Fisher) and stimulated for 72-96 h in complete growth media containing a minimum of either 50 µM L-arginine (NK cells) or 100 μM L-arginine (T cells). […] Proliferation was quantified by analyzing CFSE dilution by flow cytometry (Guava flow cytometer, Millipore, Billerica, Mass. or Attune N×T flow cytometer, ThermoFisher).
T cell/myeloid cell co-culture assays. […] Granulocytes were incubated for 48 h at 37° C., during which time they spontaneously activate as determined by surface expression of CD66b and scatter properties. […] Co-cultures were incubated for 3-4 days, at which time media were analyzed for L-arginine and L-ornithine by mass spectrometry and T cell proliferation was determined by flow cytometry. […] Cytokines were quantified in the media from T cell co-culture assays using the Cytometric Bead Array kit according to the manufacturer's instructions (BD Biosciences).

CT26 tumors = assay type: in vivo
Excerpt: as §1, §2

[2] = 100 mg/kg BID, study day 10, flow cytometry

C[C@H](N)C(=O)N1C[C@H](CCCB(O)O)[C@](N)(C(=O)O)C1 [arginase inhibitor]
Lung metastases, combination with NK cells (CT26 lung metastases): significantly fewer lung metastases
Tumor growth, single agent (4T1 tumors; 100 mg/kg BID PO): significantly inhibited the growth; also recorded: modest effect on tumor growth
CD3+ T cells in the tumor vs vehicle (4T1 tumors; [2]): increase
Myeloid cells in the tumor vs vehicle (4T1 tumors; [2]): decrease
NK cells in the tumor vs vehicle (4T1 tumors; [2]): increase
Growth inhibition of LLC cell line (LLC cell line): No growth inhibition
Efficacy on LLC tumor growth in the SCID background (LLC tumors): abrogated
T cell proliferation restored, of the proliferation observed for T cells without granulocytes ([1]; co-culture with healthy donor granulocytes): 90%
Depletion of L-arginine from the media by granulocytes ([1]; healthy donor granulocytes): blocked depletion of L-arginine
Tumor growth, single agent (CT26 tumors; 100 mg/kg BID PO): significantly inhibited the growth; also recorded: reduced
Tumor-infiltrating activated CD25+ CD8+ cytotoxic T cells vs vehicle (CT26 tumors; 100 mg/kg BID, study day 14, flow cytometry): increase
Efficacy after depletion of either CD8+ cells or NK cells (CT26 tumors; 100 mg/kg twice daily, depleting antibodies): blocked the efficacy
Tumor growth inhibition, combination with anti-PD-L1 (CT26 tumors; arginase inhibitor 100 mg/kg BID plus anti-PD-L1 5 mg/kg i.p., vs monotherapies): enhanced
Survival at study day 46, combination with anti-PD-L1 (CT26 tumors; arginase inhibitor plus anti-PD-L1): 90%
Complete responses, combination with anti-PD-L1 (CT26 tumors; arginase inhibitor plus anti-PD-L1, N=10 per group): six
Tumor growth inhibition, combination with gemcitabine (CT26 tumors; gemcitabine 50 mg/kg i.p. days 10 and 16): significant increase in tumor growth inhibition
